Test results published in ChEMBL document CHEMBL4665688, “Discovery of AB680: A Potent and Selective Inhibitor of CD73” (J Med Chem, 2020).

Assays:
Cytochrome P450 1A2 [1] = molecular target: T1, Cytochrome P450 1A2 (Homo sapiens, UniProt P05177); test: Inhibition of CYP1A2 in human liver microsomes using phenacetin as substrate incubated for 5 to 20 mins in presence of NADPH by LC-MS/MS analysis; format: ADME; conditions: time 5-20 min; read-out: INH
T1 sequence (P05177 whole entry): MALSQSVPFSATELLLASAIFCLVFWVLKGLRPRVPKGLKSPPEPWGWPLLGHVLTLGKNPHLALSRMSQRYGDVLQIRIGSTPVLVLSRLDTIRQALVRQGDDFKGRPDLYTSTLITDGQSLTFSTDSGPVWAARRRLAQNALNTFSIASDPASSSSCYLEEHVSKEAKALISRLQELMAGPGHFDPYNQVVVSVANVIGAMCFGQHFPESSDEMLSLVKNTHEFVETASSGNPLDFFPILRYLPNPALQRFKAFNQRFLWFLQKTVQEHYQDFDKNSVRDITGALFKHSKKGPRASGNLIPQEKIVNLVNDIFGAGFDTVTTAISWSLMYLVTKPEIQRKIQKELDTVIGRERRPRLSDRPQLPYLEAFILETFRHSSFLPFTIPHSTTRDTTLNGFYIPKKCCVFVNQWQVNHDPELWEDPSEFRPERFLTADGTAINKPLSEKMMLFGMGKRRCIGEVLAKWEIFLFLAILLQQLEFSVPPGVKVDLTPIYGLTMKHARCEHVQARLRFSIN

Cytochrome P450 2C9 = Cytochrome P450 2C9 (Homo sapiens, UniProt P11712); test: Inhibition of CYP2C9 in human liver microsomes using diclofenac as substrate incubated for 5 to 20 mins in presence of NADPH by LC-MS/MS analysis; format: ADME; conditions: time 5-20 min
Cytochrome P450 2C19 [2] = molecular target: T2, Cytochrome P450 2C19 (Homo sapiens, UniProt P33261); test: Inhibition of CYP2C19 in human liver microsomes using s-mephenytoin as substrate incubated for 5 to 20 mins in presence of NADPH by LC-MS/MS analysis; format: ADME; conditions: time 5-20 min; read-out: INH
Cytochrome P450 3A4 [3] = molecular target: T3, Cytochrome P450 3A4 (Homo sapiens, UniProt P08684); test: Inhibition of CYP3A4 in human liver microsomes using midazolam as substrate incubated for 5 to 20 mins in presence of NADPH by LC-MS/MS analysis; format: ADME; conditions: time 5-20 min
Cytochrome P450 2C19 [4] = molecular target: T2, Cytochrome P450 2C19; test: Time dependent inhibition of CYP2C19 in human liver microsomes using s-mephenytoin as substrate in presence of NADPH by LC-MS/MS analysis; format: ADME
Cytochrome P450 2D6 = Cytochrome P450 2D6 (Homo sapiens, UniProt P10635); test: Time dependent inhibition of CYP2D6 in human liver microsomes using dextromethorphan as substrate in presence of NADPH by LC-MS/MS analysis; format: ADME
Cytochrome P450 3A4 [5] = molecular target: T3, Cytochrome P450 3A4; test: Time dependent inhibition of CYP3A4 in human liver microsomes using midazolam as substrate in presence of NADPH by LC-MS/MS analysis; format: ADME
[6] = molecular target: Voltage-gated inwardly rectifying potassium channel KCNH2 (Homo sapiens, UniProt Q12809); test: Inhibition of human ERG
[7] = Genotoxicity in Salmonella typhimurium by Ames test; format: toxicity; conditions: salmonella enterica subsp. enterica serovar typhimurium
Cytochrome P450 1A2 [8] = molecular target: T1, Cytochrome P450 1A2; test: Induction of CYP1A2 (unknown origin) assessed as effect on CYP1A2 mRNA expression; format: ADME
Cytochrome P450 3A4 [9] = molecular target: T3, Cytochrome P450 3A4; test: Induction of CYP3A4 (unknown origin) assessed as effect on CYP3A4 mRNA expression; format: ADME
[10] = Cmax in human at 16 mg, iv administered as single infusion for 30 to 60 mins; format: ADME, organism-based; design: route intravenous, dose 16 mg, time 30-60; conditions: in vivo
[11] = Cmax in human at 25 mg, iv administered as single infusion for 30 to 60 mins; format: ADME, organism-based; design: route intravenous, dose 25 mg, time 30-60; conditions: in vivo
[12] = Clearance in human at 25 mg, iv administered as single infusion for 30 to 60 mins; format: ADME, organism-based; conditions: in vivo, time 30-60 min
[13] = Volume of distribution at steady state in human at 25 mg, iv administered as single infusion for 30 to 60 mins; format: ADME, organism-based; conditions: in vivo, time 30-60 min, read-out: Vdss
[14] = Half life in human at 25 mg, iv administered as single infusion for 30 to 60 mins; format: ADME, organism-based; conditions: in vivo, time 30-60 min
[15] = Toxicity in human at 0.1 to 25 mg, iv administered as single dose; format: organism-based; conditions: in vivo, dose 0.1-25 mg
5'-nucleotidase = 5'-nucleotidase (Homo sapiens, UniProt P21589); test: Inhibition of soluble human CD73
Chain of 5'-nucleotidase (P21589 whole entry): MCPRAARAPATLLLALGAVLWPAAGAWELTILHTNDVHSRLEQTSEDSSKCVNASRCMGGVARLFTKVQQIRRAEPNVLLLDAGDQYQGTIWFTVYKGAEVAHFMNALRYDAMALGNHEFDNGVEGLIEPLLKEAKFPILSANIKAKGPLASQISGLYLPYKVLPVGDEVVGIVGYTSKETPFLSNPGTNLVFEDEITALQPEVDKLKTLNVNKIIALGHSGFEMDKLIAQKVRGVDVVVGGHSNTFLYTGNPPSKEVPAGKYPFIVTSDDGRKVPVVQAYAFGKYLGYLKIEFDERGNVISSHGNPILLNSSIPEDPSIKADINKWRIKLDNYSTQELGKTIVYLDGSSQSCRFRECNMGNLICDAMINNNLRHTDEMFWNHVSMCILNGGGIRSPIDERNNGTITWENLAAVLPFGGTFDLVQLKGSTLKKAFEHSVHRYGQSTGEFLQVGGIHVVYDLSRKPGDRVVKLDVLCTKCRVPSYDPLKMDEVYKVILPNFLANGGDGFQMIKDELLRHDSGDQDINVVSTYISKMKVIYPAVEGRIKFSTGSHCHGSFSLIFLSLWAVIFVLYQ

T3 sequence (P08684 whole entry): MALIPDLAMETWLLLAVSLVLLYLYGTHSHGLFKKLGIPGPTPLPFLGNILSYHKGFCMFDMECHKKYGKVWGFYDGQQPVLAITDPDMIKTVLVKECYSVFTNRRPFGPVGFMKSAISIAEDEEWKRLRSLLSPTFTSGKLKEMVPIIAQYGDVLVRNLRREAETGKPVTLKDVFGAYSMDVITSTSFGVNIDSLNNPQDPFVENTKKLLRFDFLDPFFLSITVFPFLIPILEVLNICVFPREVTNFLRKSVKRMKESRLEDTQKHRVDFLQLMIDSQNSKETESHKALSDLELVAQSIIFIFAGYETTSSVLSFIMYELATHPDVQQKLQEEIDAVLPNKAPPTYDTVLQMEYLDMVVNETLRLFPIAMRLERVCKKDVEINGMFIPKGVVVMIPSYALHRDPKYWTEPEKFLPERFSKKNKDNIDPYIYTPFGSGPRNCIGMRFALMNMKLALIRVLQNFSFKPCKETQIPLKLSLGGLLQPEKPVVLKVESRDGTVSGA
T2 sequence (P33261 whole entry): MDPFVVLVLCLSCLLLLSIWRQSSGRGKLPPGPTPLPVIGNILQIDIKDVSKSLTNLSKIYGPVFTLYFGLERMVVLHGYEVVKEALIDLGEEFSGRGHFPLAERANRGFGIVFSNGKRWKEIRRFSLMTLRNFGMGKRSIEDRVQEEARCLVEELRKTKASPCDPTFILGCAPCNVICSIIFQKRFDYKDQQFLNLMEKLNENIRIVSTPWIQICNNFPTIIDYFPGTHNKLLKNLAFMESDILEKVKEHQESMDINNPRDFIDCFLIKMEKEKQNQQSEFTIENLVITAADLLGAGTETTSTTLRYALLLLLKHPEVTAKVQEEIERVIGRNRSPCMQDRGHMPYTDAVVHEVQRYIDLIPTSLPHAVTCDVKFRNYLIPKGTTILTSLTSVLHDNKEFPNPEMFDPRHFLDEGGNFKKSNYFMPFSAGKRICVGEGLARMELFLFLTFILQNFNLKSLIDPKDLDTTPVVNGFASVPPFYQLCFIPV
Chain of Cytochrome P450 2D6 (P10635 whole entry): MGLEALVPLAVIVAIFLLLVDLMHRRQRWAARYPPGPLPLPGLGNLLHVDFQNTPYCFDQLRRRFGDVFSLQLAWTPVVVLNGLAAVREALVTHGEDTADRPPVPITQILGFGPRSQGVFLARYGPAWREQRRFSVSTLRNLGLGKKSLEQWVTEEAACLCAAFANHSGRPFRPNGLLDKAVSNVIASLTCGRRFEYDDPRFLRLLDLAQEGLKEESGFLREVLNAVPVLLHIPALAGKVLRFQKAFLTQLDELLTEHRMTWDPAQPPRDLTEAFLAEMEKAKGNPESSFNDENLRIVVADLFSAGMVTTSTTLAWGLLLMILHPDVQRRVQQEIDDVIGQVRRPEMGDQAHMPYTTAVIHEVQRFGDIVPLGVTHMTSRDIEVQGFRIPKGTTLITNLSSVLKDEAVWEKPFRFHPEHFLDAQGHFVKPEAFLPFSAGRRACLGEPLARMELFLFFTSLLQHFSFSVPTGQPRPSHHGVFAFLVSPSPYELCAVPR
Chain of Cytochrome P450 2C9 (P11712 whole entry): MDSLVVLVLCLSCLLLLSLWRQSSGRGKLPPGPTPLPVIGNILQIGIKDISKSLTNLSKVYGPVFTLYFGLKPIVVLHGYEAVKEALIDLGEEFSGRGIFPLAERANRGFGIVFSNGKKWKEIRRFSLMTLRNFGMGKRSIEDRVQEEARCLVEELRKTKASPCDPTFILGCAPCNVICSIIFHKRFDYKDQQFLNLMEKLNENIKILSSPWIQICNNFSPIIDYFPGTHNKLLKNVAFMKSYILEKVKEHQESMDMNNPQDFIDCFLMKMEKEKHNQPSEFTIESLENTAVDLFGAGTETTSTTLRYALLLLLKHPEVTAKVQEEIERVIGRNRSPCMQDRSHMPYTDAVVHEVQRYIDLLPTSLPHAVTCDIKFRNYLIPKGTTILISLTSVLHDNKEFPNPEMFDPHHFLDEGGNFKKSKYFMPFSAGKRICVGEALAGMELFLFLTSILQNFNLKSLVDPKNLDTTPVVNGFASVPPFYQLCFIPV
Chain of Voltage-gated inwardly rectifying potassium channel KCNH2 (Q12809 whole entry): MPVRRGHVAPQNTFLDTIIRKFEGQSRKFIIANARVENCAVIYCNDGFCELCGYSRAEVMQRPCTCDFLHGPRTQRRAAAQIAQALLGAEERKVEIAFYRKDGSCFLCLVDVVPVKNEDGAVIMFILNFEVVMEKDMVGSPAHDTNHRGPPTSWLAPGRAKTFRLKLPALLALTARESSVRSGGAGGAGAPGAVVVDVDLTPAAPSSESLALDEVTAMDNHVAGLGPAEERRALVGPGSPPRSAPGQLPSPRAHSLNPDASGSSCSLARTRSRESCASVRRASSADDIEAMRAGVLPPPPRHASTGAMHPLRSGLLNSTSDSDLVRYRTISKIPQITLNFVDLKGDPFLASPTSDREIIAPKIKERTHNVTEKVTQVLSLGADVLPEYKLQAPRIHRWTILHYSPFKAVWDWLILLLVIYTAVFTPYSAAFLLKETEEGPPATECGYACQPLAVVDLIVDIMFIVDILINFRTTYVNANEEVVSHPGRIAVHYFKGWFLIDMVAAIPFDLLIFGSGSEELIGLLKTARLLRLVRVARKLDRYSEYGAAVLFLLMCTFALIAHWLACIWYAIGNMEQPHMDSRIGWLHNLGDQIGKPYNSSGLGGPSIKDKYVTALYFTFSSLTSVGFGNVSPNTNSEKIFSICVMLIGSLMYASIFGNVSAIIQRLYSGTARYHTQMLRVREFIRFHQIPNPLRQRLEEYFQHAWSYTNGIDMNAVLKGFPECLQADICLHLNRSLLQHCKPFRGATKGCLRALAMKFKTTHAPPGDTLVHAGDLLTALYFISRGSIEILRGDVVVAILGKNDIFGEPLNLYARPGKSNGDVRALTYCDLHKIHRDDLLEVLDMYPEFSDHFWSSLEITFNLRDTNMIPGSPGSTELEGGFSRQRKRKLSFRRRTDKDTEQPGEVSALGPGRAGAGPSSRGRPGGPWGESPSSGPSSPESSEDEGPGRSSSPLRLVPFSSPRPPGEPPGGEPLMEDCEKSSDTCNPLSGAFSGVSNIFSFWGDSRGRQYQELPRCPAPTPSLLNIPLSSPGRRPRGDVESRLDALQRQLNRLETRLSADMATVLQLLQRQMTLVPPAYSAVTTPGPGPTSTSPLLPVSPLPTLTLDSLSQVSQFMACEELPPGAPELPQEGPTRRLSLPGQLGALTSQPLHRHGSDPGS

Row | IC50 (Cytochrome P450 1A2 [1]) | INH (Cytochrome P450 2C9) | IC50 (Cytochrome P450 2C19 [2]) | INH (Cytochrome P450 3A4 [3]) | TDI (Cytochrome P450 2C19 [4]) | TDI (Cytochrome P450 2D6) | TDI (Cytochrome P450 3A4 [5]) | Activity (Cytochrome P450 1A2 [8]) | Activity (Cytochrome P450 3A4 [9]) | Cmax [10] | Cmax [11] | clearance [12] | Vd [13] | half-life [14] | IC50 (5'-nucleotidase) | Structure (SMILES) | IC50 [6] | Activity [7] | Activity [15]
1 | > 100 µM | > 100 µM | > 100 µM | > 100 µM | Not Active | Not Active | Not Active | Not Active | Not Active | 3910 ng/mL | 5170 ng/mL | 1.14 mL/min | 6.98 L | 74.2 h |  | C[C@H](Nc1cc(Cl)nc2c1cnn2[C@@H]1O[C@H](COP(=O)(O)CP(=O)(O)O)[C@@H](O)[C@H]1O)c1ccccc1F | > 10 µM | Non-Toxic | Non-Toxic
2 |  |  |  |  |  |  |  |  |  |  |  |  |  |  | 0.053 nM | C[C@H](Nc1nc(Cl)nc2c1cnn2[C@@H]1O[C@H](COP(=O)(O)CP(=O)(O)O)[C@@H](O)[C@H]1O)c1ccccc1 |  |  | 
